The source of these data is PubChem BioAssay (NCI).

Each structure is given as a SMILES string.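 Cells were grown in 96-well plates and exposed to each compound for 48 hours at five concentrations; endpoints were interpolated linearly between bracketing concentrations, or set to the highest concentration if not reached. Abbreviation: GI50, concentration required for 50% inhibition of growth. TGI marks complete inhibition of growth.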

Among the test systems are LXFL 529 NSCLC; OVCAR-8 ovarian; HCT-116 colon; ACHN renal; NCI-H460 lung; COLO 205 colon; DMS 273 small cell lung; A549 NSCLC; LOX IMVI melanoma; RXF 393 renal.
Holding throughout (experiment): growth of human tumour cells (NCI), 48 h

As to `CCOc1ccc2c(c1)[n+]([O-])c(-c1ccc(Cl)cc1)c(N)[n+]2[O-]`, the TGI in the experiment with LXFL 529 NSCLC, in the experiment with OVCAR-8 ovarian, in the experiment on HCT-116 colon, in the experiment on ACHN renal, in the experiment on NCI-H460 lung and with COLO 205 colon was over 100 µM each time. Further, the TGI in the experiment on DMS 273 small cell lung and with A549 NSCLC was over 100 µM in each case.

As for `COc1ccc(Br)c(N/N=C2\CCCNC2=O)c1`, the TGI with LOX IMVI melanoma, in the experiment on LXFL 529 NSCLC, with OVCAR-8 ovarian, in the experiment on HCT-116 colon, in the experiment on ACHN renal and in the experiment on NCI-H460 lung was over 100 µM throughout. Also, the TGI in the experiment with COLO 205 colon, in the experiment on DMS 273 small cell lung and with A549 NSCLC was over 100 µM throughout.

On to `O=C(O)C(SC(=S)c1ccc(C(=S)SC(C(=O)O)c2ccccc2)cc1)c1ccccc1` (configuration not stated), for which the TGI in the experiment with LOX IMVI melanoma, in the experiment on LXFL 529 NSCLC, in the experiment on OVCAR-8 ovarian, in the experiment with HCT-116 colon, in the experiment with ACHN renal and with NCI-H460 lung was over 100 µM throughout. Further, the TGI in the experiment on DMS 273 small cell lung, in the experiment with A549 NSCLC and in the experiment with RXF 393 renal was over 100 µM each time.

As for `CN1C(=Nc2ccccc2)SC1=Nc1ccccc1`, the TGI in the experiment with LOX IMVI melanoma, with LXFL 529 NSCLC, in the experiment with OVCAR-8 ovarian, with HCT-116 colon, with ACHN renal and with NCI-H460 lung was over 100 µM in each case. In addition, the TGI in the experiment on COLO 205 colon, in the experiment with DMS 273 small cell lung and with A549 NSCLC was over 100 µM each time.

`CCCCOC(=O)C1C2CCC(O2)C1C(=O)OCCCC` (configuration not stated): the TGI is over 60.7 µM with LOX IMVI melanoma; over 100 µM in the experiment with OVCAR-8 ovarian; over 65.1 µM in the experiment with HCT-116 colon; over 100 µM with ACHN renal; over 47.1 µM in the experiment on NCI-H460 lung; over 57.3 µM in the experiment on COLO 205 colon. The values for the TGI in the experiment with DMS 273 small cell lung, in the experiment with A549 NSCLC and in the experiment with RXF 393 renal were over 100 µM, over 100 µM and over 86.8 µM, respectively.

For `CCCCNc1nc(C#N)c(N)s1`, the TGI in the experiment on LOX IMVI melanoma, in the experiment with LXFL 529 NSCLC, in the experiment on OVCAR-8 ovarian, with HCT-116 colon, in the experiment on ACHN renal and in the experiment on NCI-H460 lung was over 100 µM each time. Moreover, the TGI in the experiment with COLO 205 colon, in the experiment with DMS 273 small cell lung and in the experiment with A549 NSCLC was over 100 µM in each case.

As to `Oc1c(C(Nc2cccc3cccnc23)c2ccccc2)ccc2cccnc12` (configuration not stated), the TGI with LOX IMVI melanoma is over 100 µM; in the experiment with LXFL 529 NSCLC, over 100 µM; with OVCAR-8 ovarian it was 21.3 µM; with HCT-116 colon, over 100 µM; in the experiment on ACHN renal, over 100 µM; in the experiment with NCI-H460 lung it was over 100 µM. Also, the TGI in the experiment with COLO 205 colon, with DMS 273 small cell lung and in the experiment on A549 NSCLC was over 100 µM each time.

With `CC(C)C1CC[C@@H](C)C[C@@]1(O)CC(N)=O` (some centres not stated), the TGI with LXFL 529 NSCLC, in the experiment with OVCAR-8 ovarian, in the experiment with HCT-116 colon, with ACHN renal, in the experiment on NCI-H460 lung and in the experiment on COLO 205 colon was over 100 µM throughout. Moreover, the TGI with DMS 273 small cell lung and in the experiment on A549 NSCLC was over 100 µM each time.

Turning to `Clc1ccc(C2SCc3nc4ccccc4n32)c(Cl)c1` (configuration not stated), the TGI came to 29.4 µM in the experiment on LOX IMVI melanoma; 24.5 µM in the experiment with LXFL 529 NSCLC; 32.1 µM with OVCAR-8 ovarian; 27.6 µM in the experiment with HCT-116 colon; 28.7 µM in the experiment on ACHN renal; 34.7 µM with NCI-H460 lung. Besides, the TGI with COLO 205 colon came out at 31.5 µM; in the experiment on A549 NSCLC, 28.8 µM; in the experiment with RXF 393 renal it was 29.6 µM.

Consider `CCOC(=O)NC(=O)c1cn(CCOC(=O)CCCCCCCCC(=O)OCCn2cc(C(=O)NC(=O)OCC)c(=O)[nH]c2=O)c(=O)[nH]c1=O`, for which the TGI with LOX IMVI melanoma, with LXFL 529 NSCLC, in the experiment on OVCAR-8 ovarian, with HCT-116 colon, with ACHN renal and with NCI-H460 lung was over 100 µM in each case. The TGI with DMS 273 small cell lung, with A549 NSCLC and in the experiment on RXF 393 renal was over 100 µM each time.

With `CCC1C2Cc3ccc(O)cc3C1(CC)CCN2C` (configuration not stated), the TGI in the experiment with LOX IMVI melanoma, in the experiment on OVCAR-8 ovarian, in the experiment with HCT-116 colon, in the experiment on ACHN renal, with NCI-H460 lung and in the experiment with COLO 205 colon was over 100 µM throughout. Further, the TGI with A549 NSCLC and in the experiment with RXF 393 renal was over 100 µM in each case.

Turning to `COc1ccc(/C(COc2ccc3c(=O)cc(-c4ccccc4)oc3c2)=N\O)cc1`, the GI50 in the experiment with LOX IMVI melanoma was 9.4 µM; in the experiment on OVCAR-8 ovarian, 21.4 µM; in the experiment on HCT-116 colon it was 21.2 µM; in the experiment with ACHN renal it was 9.5 µM; in the experiment with NCI-H460 lung, 13.3 µM; with COLO 205 colon, 26.5 µM. The GI50 in the experiment with A549 NSCLC is 20.1 µM; with RXF 393 renal, 15.8 µM. The TGI in the experiment with LOX IMVI melanoma was 24.4 µM; in the experiment on OVCAR-8 ovarian, over 35.5 µM; in the experiment with HCT-116 colon, over 50 µM; in the experiment on ACHN renal, 19 µM; with NCI-H460 lung it was over 50 µM; with COLO 205 colon it was over 50 µM. The TGI in the experiment with A549 NSCLC and in the experiment on RXF 393 renal was over 50 µM each time.

`CCOc1ccccc1N1C(=O)C(=O)C(c2nc3ccccc3o2)C(=O)C1=O`: the TGI in the experiment on LOX IMVI melanoma, with LXFL 529 NSCLC, with OVCAR-8 ovarian, in the experiment with HCT-116 colon, in the experiment on ACHN renal and in the experiment with COLO 205 colon was over 100 µM in each case. Moreover, the TGI in the experiment with DMS 273 small cell lung and in the experiment on A549 NSCLC was over 100 µM each time.

Regarding `COc1ccc(C(=O)c2cc(OC)c(OC)c(OC)c2)cc1OC(=O)CCl`, the GI50 in the experiment on LOX IMVI melanoma is under 0.0199 µM; in the experiment on OVCAR-8 ovarian, 0.052 µM; in the experiment with HCT-116 colon, 0.0205 µM; with ACHN renal, under 0.0267 µM; in the experiment on NCI-H460 lung, 0.0399 µM; with COLO 205 colon, 1.21 µM. Also, the GI50 in the experiment on A549 NSCLC was 0.164 µM; in the experiment on RXF 393 renal, 0.0441 µM. Also, the TGI with LOX IMVI melanoma is over 100 µM; in the experiment on OVCAR-8 ovarian, over 100 µM; in the experiment on HCT-116 colon, over 100 µM; with ACHN renal, 98.7 µM; with NCI-H460 lung it was over 100 µM; with COLO 205 colon it was 15.6 µM. The TGI in the experiment on A549 NSCLC and with RXF 393 renal was over 100 µM each time.

Take `CC(C)[C@H](N)C(=O)N1CCC[C@H]1B(O)O`: the GI50 in the experiment on LOX IMVI melanoma, with OVCAR-8 ovarian, in the experiment on HCT-116 colon, in the experiment on ACHN renal, in the experiment on NCI-H460 lung and in the experiment on COLO 205 colon was over 100 µM in each case. For the same compound, the GI50 in the experiment on A549 NSCLC and with RXF 393 renal was over 100 µM in each case. Also, the TGI in the experiment on LOX IMVI melanoma, in the experiment with OVCAR-8 ovarian, with HCT-116 colon, with ACHN renal, with NCI-H460 lung and with COLO 205 colon was over 100 µM throughout. Besides, the TGI in the experiment with A549 NSCLC and in the experiment with RXF 393 renal was over 100 µM each time.

Take `C=C1C(=O)O[C@H]2[C@H]1CC/C(COC(=O)NCc1ccc(Cn3c(=O)sn(CCCl)c3=O)cc1)=C\CC[C@@]1(C)O[C@@H]21`: the GI50 in the experiment on LOX IMVI melanoma is 1.69 µM; in the experiment on OVCAR-8 ovarian, 2.04 µM; with HCT-116 colon, 1.62 µM; in the experiment with ACHN renal, 1.54 µM; in the experiment on NCI-H460 lung, 15 µM; with COLO 205 colon, 1.84 µM. Moreover, the GI50 in the experiment with A549 NSCLC is 14.2 µM; in the experiment on RXF 393 renal, 1.18 µM. Moreover, the TGI in the experiment with LOX IMVI melanoma is 3.12 µM; in the experiment on OVCAR-8 ovarian, 4.81 µM; in the experiment with HCT-116 colon, 3.08 µM; with ACHN renal, 2.87 µM; with NCI-H460 lung, 32.5 µM; with COLO 205 colon, 3.6 µM. The TGI with A549 NSCLC is 29.1 µM; with RXF 393 renal, 2.64 µM.

Take `COC(=O)C1(C)CCC(c2ccc(C)cc2)=C(CC(=O)O)C1` (configuration not stated): the TGI in the experiment with LOX IMVI melanoma, in the experiment on OVCAR-8 ovarian, in the experiment with HCT-116 colon, with ACHN renal, in the experiment with NCI-H460 lung and with COLO 205 colon was over 100 µM throughout. For the same compound, the TGI in the experiment on A549 NSCLC and in the experiment with RXF 393 renal was over 100 µM each time.

As to `Fc1ccc2c(c1)C1=NN(c3ccccc3)C(F)C1CO2` (configuration not stated), the GI50 is 10.5 µM in the experiment with LOX IMVI melanoma; 9.04 µM in the experiment with OVCAR-8 ovarian; 10.7 µM in the experiment on HCT-116 colon; 8.94 µM in the experiment with ACHN renal; 10.5 µM with NCI-H460 lung; 7.96 µM in the experiment with A549 NSCLC. Moreover, in the experiment on RXF 393 renal, the GI50 is 7.33 µM. For the same compound, the TGI is 24.1 µM in the experiment with LOX IMVI melanoma; 27.3 µM in the experiment with OVCAR-8 ovarian; over 50 µM with HCT-116 colon; 22.7 µM with ACHN renal; over 50 µM with NCI-H460 lung; 30.9 µM in the experiment on COLO 205 colon. The TGI with A549 NSCLC came out at 23.9 µM; with RXF 393 renal, 41.4 µM.

As for `C[C@H]1[C@H](C)CC[C@]2(CO)CC[C@]3(C)C(=CC[C@@H]4[C@@]5(C)CCCNC(C)(C)[C@@H]5CC[C@]43C)[C@H]12`, the GI50 was 1.59 µM with LOX IMVI melanoma; 1.96 µM in the experiment on OVCAR-8 ovarian; 1.49 µM in the experiment with HCT-116 colon; 1.69 µM in the experiment with ACHN renal; 1.78 µM in the experiment on NCI-H460 lung; 1.74 µM with COLO 205 colon. Further, the GI50 was 1.74 µM with A549 NSCLC and 1.81 µM with RXF 393 renal. Also, the TGI worked out at 3.05 µM in the experiment with LOX IMVI melanoma; 3.61 µM in the experiment with OVCAR-8 ovarian; 2.81 µM in the experiment on HCT-116 colon; 3.06 µM in the experiment on ACHN renal; 3.35 µM with NCI-H460 lung; 3.46 µM with COLO 205 colon. Moreover, the TGI came to 3.28 µM in the experiment with A549 NSCLC and 3.51 µM with RXF 393 renal.
